Laboratory results published in patent US20260076975A1, “TPK AGONIST AND METHOD FOR USING SAME TO TREAT NEURODEGENERATIVE DISEASES” (SHANGHAI RAISING PHARMACEUTICAL CO., LTD., priority 2022, published 2026).
Where two headings read alike, the source gives them in different places.

Target: TPK enzyme (Homo sapiens, UniProt Q9H3S4)
Assay: TPK enzyme activity test (TDP formation from thiamine and ATP, HPLC detection)
Assay type: biochemical
Description: The purpose of this example was to test the promoting effect of compounds on TPK enzyme activity and evaluate the in vitro activity of the compounds based on EC50 and Emax.
1.1) The constant-temperature water-bath shaker was pre-heated half an hour in advance at a pre-heating temperature of 37° C.
1.2) The stock solution of the compound to be tested was taken out, allowed to thaw at room temperature, and then diluted to the required concentration.
1.3) The required reagents were placed on ice to thaw.
2.1) For each reaction system, TPK enzyme solution, Tris-HCl buffer solution, and ATP solution were added. The concentration of ATP used was 1-500 mM. The above three solutions were formulated into a homogeneous mixture.
2.2) The mixture of the above three solutions was dispensed into centrifuge tubes. Then, the compound at the required concentration was added to each centrifuge tube. Finally, thiamine solution (1-100 μM) was added. After the addition of the above system was completed, the centrifuge tubes were tightly capped, inserted into a floating board, and placed in the constant-temperature water-bath shaker that had been pre-heated to 37° C. for incubation for 0.5-2.0 hours.
2.3) After the incubation was completed, perchloric acid stop solution was added and mixed well. Samples were taken into 1.5 mL centrifuge tubes and stored at −20° C.
3.1) The samples stored at −20° C. were taken out, thawed at room temperature, and then subjected to derivatization treatment. The samples were placed in centrifuge tubes, a potassium ferricyanide derivatization reagent was added, and finally phosphoric acid stop solution was added to stop the reaction.
3.2) The derivatized samples were placed in sample vials for liquid chromatography analysis, and the contents of TDP/thiamine were detected by high performance liquid chromatography. TKP enzyme activity=TDP (nM)/mg protein/min.
The effects of the compounds of the present invention on TPK enzyme activity at different concentrations were determined according to the above procedures.

[1] = promoting effect on TPK enzyme activity
[2] = promoting effect on TPK enzyme activity, calculated with the effect of DMSO on TPK enzyme activity as 100%, read-out: Emax

Sequence of TPK enzyme (Q9H3S4 whole entry): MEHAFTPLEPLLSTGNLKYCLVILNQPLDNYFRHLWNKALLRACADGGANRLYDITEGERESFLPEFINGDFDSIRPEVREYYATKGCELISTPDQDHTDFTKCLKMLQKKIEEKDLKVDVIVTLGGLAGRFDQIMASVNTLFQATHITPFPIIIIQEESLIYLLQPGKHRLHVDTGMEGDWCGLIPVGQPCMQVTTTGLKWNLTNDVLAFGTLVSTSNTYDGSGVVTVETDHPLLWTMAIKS

SMILES	Emax	EC50 [1]	Emax [2]	Emax (promoting effect on TPK enzyme activity, calculated with the effect of DMSO on TPK enzyme activity as 100%)
CC(=O)N1CCCc2cc(C(=O)N3CCN(c4cccc(C(F)(F)F)c4)CC3)ccc21 [Compound 165, 1-(6-(4-(3-(trifluoromethyl)phenyl)piperazine-1-carbonyl)-3,4-dihydroquinolin-1(2H)-yl)ethan-1-one]	148%	9800 nM		
O=C1CCc2ccc(OCCCCCN3CCN(c4cccc(C(F)(F)F)c4)CC3)cc2N1 [Compound 7, 7-((5-(4-(3-(trifluoromethyl)phenyl)piperazin-1-yl)pentyl)oxy)-3,4-dihydroquinolin-2(1H)-one]		1180 nM	224%	
CC(NC(=O)Nc1nncs1)c1ccc2c(c1)CCC(=O)N2 (stereo not shown) [Compound 156]			120%	
CC(C)C(CNC(=O)COc1ccc2c(c1)CCC(=O)N2)N1CCc2ccccc2C1 (stereo not shown) [Compound 153]		7860 nM	201%	
COc1ccc(/C=C/C(=O)N2CCN(c3cccc(Cl)c3Cl)CC2)cc1OC [Compound 58]		1200 nM	223%	
O=C1Cc2ccc(OCCCCN3CCN(c4nc5ccccc5s4)CC3)cc2N1 [Compound 44, 6-(4-(4-(benzo[d]thiazol-2-yl)piperazin-1-yl)butoxy)indolin-2-one]		1140 nM	235%	
CC1(C)CCC(C)(C)c2cc(NC(=O)CCC(=O)N3CCN(c4cccc(Cl)c4Cl)CC3)ccc21 [Compound 31, 4-(4-(2,3-dichlorophenyl)piperazin-1-yl)-4-oxo-N-(5,5,8,8-tetramethyl-5,6,7,8-tetrahydronaphthalen-2-yl)butanamide]			124%	
CN(CC(=O)NCc1ccc(F)cc1)S(=O)(=O)c1ccc2[nH]c(=O)ccc2c1 [Compound 144]			121%	
Clc1cccc(N2CCN(CCCOc3ccc4ncsc4c3)CC2)c1Cl [Compound 28, 6-(3-(4-(2,3-dichlorophenyl)piperazin-1-yl)propoxy)benzo[d]thiazole]		1540 nM	185%	
O=C(CN1CCN(c2ccc(F)cc2)CC1)NC(=O)NCCc1c[nH]c2ccc(F)cc12 [Compound 146]		1340 nM	175%	
O=C(/C=C/c1cc(O)c(O)c(O)c1)N1CCN(c2cccc(Cl)c2Cl)CC1 [Compound 55, (E)-1-(4-(2,3-dichlorophenyl)piperazin-1-yl)-3-(3,4,5-trihydroxyphenyl)prop-2-en-1-one]			134%	
O=C1CCc2ccc(OCCCCN3CCN(c4nc5ccccc5s4)CC3)cc2N1 [Compound 36, 7-(4-(4-(benzo[d]thiazol-2-yl)piperazin-1-yl)butoxy)-3,4-dihydroquinolin-2(1H)-one]		1320 nM	139%	
COc1ccc(CCNC(=O)N2CCN(c3cccc(Cl)c3Cl)CC2)cc1OC [Compound 64, 4-(2,3-dichlorophenyl)-N-(3,4-dimethoxyphenethyl)piperazine-1-carboxamide]	184%	4710 nM		
O=C1CCc2ccc(OCC(=O)NC3CCC(c4cccc(Cl)c4Cl)CC3)cc2N1 (stereo not shown) [Compound 21, N-(4-(2,3-dichlorophenyl)cyclohexyl)-2-((2-oxo-1,2,3,4-tetrahydroquinolin-7-yl)oxy)acetamide]		1060 nM	166%	
O=C1CCc2ccc(OCCCCN3CCC(c4cccc(Cl)c4Cl)CC3)cc2N1 [Compound 19]		5010 nM	196%	
COc1cccc2cc(C(=O)N3CCN(c4cccc(C(F)(F)F)c4)CC3)c(=O)oc12 [Compound 150]		139 nM	212%	
O=C1CCc2ccc(OCCCCCN3CCN(c4cccc(Cl)c4Cl)CC3)cc2N1 [Compound 4, 7-((5-(4-(2,3-dichlorophenyl)piperazin-1-yl)pentyl)oxy)-3,4-dihydroquinolin-2(1H)-one]		1040 nM	194%	
Cc1ccc(Cl)cc1N1CCN(CCNC(=O)CC2Oc3ccccc3NC2=O)CC1 (stereo not shown) [Compound 84]		3860 nM		154.70%
COc1ccc(NC(=O)CN2CCN(c3cccc(Cl)c3Cl)CC2)cc1N(C)C [Compound 48, 2-(4-(2,3-dichlorophenyl)piperazin-1-yl)-N-(3-(dimethylamino)-4-methoxyphenyl)acetamide]		3800 nM	156%	

SMILES	Emax	EC50 [1]	Emax [2]	Emax (promoting effect on TPK enzyme activity, calculated with the effect of DMSO on TPK enzyme activity as 100%)
O=C1Cc2ccc(OCCCCN3CCN(c4cccc(C(F)(F)F)c4)CC3)cc2N1 [Compound 25, 6-(4-(4-(3-(trifluoromethyl)phenyl)piperazin-1-yl)butoxy)indolin-2-one]		754 nM	138%	
Clc1cccc(N2CCN(CCCCOc3ccc4ncsc4c3)CC2)c1Cl [Compound 29, 6-(4-(4-(2,3-dichlorophenyl)piperazin-1-yl)butoxy)benzo[d]thiazole]		2280 nM	191%	
O=C(CC1Oc2ccccc2NC1=O)NCCN1CCN(c2cccc(Cl)c2Cl)CC1 (stereo not shown) [Compound 85, N-(2-(4-(2,3-dichlorophenyl)piperazin-1-yl)ethyl)-2-(3-oxo-3,4-dihydro-2H-benzo[b][1,4]oxazin-2-yl)acetamide]			168%	
COc1cncc(C#CCN2CCN(c3cccc(Cl)c3Cl)CC2)c1 [Compound 69, 1-(2,3-dichlorophenyl)-4-(3-(5-methoxypyridin-3-yl)prop-2-yn-1-yl)piperazine]	194%	2720 nM		
COc1cc2c(cc1OC)N(CCCCN1CCN(c3cccc(Cl)c3Cl)CC1)C(=O)C2 [Compound 79, 1-(4-(4-(2,3-dichlorophenyl)piperazin-1-yl)butyl)-5,6-dimethoxyindolin-2-one]	133%			
CC(=O)N1CCCc2cc(C(=O)N3CCN(c4cccc(Cl)c4Cl)CC3)ccc21 [Compound 166, 1-(6-(4-(2,3-dichlorophenyl)piperazine-1-carbonyl)-3,4-dihydroquinolin-1(2H)-yl)ethan-1-one]	156%	4250 nM		
COC(=O)c1cc(OC)c(OC)cc1C(=O)N1CCN(c2cccc(Cl)c2Cl)CC1 [Compound 173, methyl 2-(4-(2,3-dichlorophenyl)piperazine-1-carbonyl)-4,5-dimethoxybenzoate]	132%			
O=C1CCc2cc(OCCCN3CC(=O)Nc4ccc(Cl)cc43)ccc2N1 [Compound 115, 6-chloro-4-(3-((2-oxo-1,2,3,4-tetrahydroquinolin-6-yl)oxy)propyl)-3,4-dihydroquinoxalin-2(1H)-one]			159%	
Cc1cc2c(s1)Nc1ccccc1N=C2N1CCN(CCCCOc2ccc3c(c2)NC(=O)CC3)CC1 [Compound 42, 7-(4-(4-(2-methyl-10H-benzo[b]thieno[2,3-e][1,4]diazepin-4-yl)piperazin-1-yl)butoxy)-3,4-dihydroquinolin-2(1H)-one]		1000 nM	170%	
O=c1ccc2ccc(OCCCCN3CCN(c4cccc(Cl)c4Cl)CC3)cc2[nH]1 [Compound 10, 7-(4-(4-(2,3-dichlorophenyl)piperazin-1-yl)butoxy)quinolin-2(1H)-one]		130 nM	183%	
Cc1ccc2c(n1)N(CCC(=O)NCCN1CCN(c3cc(Cl)ccc3C)CC1)CCO2 [Compound 76, N-(2-(4-(5-chloro-2-methylphenyl)piperazin-1-yl)ethyl)-3-(6-methyl-2,3-dihydro-4H-pyrido[3,2-b][1,4]oxazin-4-yl)propanamide]		3460 nM	147%	
COc1ccc(/C=C/CC(=O)N2CCN(c3cccc(Cl)c3Cl)CC2)cc1OC [Compound 59, (E)-1-(4-(2,3-dichlorophenyl)piperazin-1-yl)-4-(3,4-dimethoxyphenyl)but-3-en-1-one]	206%	1220 nM		
COc1ccc(NC(=O)CNC(=O)N2CCN(c3cccc(Cl)c3Cl)CC2)cc1OC [Compound 65, 4-(2,3-dichlorophenyl)-N-(2-((3,4-dimethoxyphenyl)amino)-2-oxoethyl)piperazine-1-carboxamide]	133%			
O=C(CCc1c[nH]c2ccccc12)N1CCN(CC(=O)N2CCCC2)CC1 [Compound 139]		8090 nM	191%	
O=C1CCc2ccc(OCCCCN3CCN(c4cccc(C(F)(F)F)c4)CC3)cc2N1 [Compound 6, 7-(4-(4-(3-(trifluoromethyl)phenyl)piperazin-1-yl)butoxy)-3,4-dihydroquinolin-2(1H)-one]		1270 nM	215%	
O=C(NCCCCN1CCN(c2cc(C(F)(F)F)cc(C(F)(F)F)c2)CC1)c1ccc(Cl)cc1 [Compound 53, N-(4-(4-(3,5-bis(trifluoromethyl)phenyl)piperazin-1-yl)butyl)-4-chlorobenzamide]	133%			
O=C1Cc2ccc(OCCCCN3CCN(c4cccc(Cl)c4Cl)CC3)cc2N1 [Compound 24, 6-(4-(4-(2,3-dichlorophenyl)piperazin-1-yl)butoxy)indolin-2-one]			189%	
COc1cc(/C=C/C(=O)N2CCN(c3cccc(Cl)c3Cl)CC2)cc(OC)c1OC [Compound 57]			135%	
COc1ccc(NC(=O)CN2CCN(c3cccc(Cl)c3Cl)CC2)cc1N [Compound 47, N-(3-amino-4-methoxyphenyl)-2-(4-(2,3-dichlorophenyl)piperazin-1-yl)acetamide]		4650 nM	199%	
